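Step 1: Grow cells in 96-well plates. Step 2: Expose to compound for 48 hours at 5 concentrations. Step 3: Interpolate endpoints linearly; if unreached, use highest concentration. GI50: concentration for 50% inhibition of growth. TGI: concentration producing complete growth inhibition.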
How the values were obtained:
Assay in all cases: NCI anticancer screen, dose series, 48 h
CAKI-1 renal = test system: CAKI-1 renal
U251 CNS = test system: U251 CNS
NCI/ADR-RES ovarian = test system: NCI/ADR-RES ovarian
SR leukemia = test system: SR leukemia
HCT-116 colon = test system: HCT-116 colon
M14 melanoma = test system: M14 melanoma
HS 578T breast = test system: HS 578T breast
MDA-MB-435 = test system: MDA-MB-435
MDA-MB-231 breast = test system: MDA-MB-231 breast
UACC-62 melanoma = test system: UACC-62 melanoma

SMILES	TGI (CAKI-1 renal) [µM]	TGI (U251 CNS) [µM]	TGI (NCI/ADR-RES ovarian) [µM]	TGI (SR leukemia) [µM]	TGI (HCT-116 colon) [µM]	TGI (M14 melanoma) [µM]	TGI (HS 578T breast) [µM]	TGI (MDA-MB-435) [µM]	TGI (MDA-MB-231 breast) [µM]	TGI (UACC-62 melanoma) [µM]	GI50 (CAKI-1 renal) [µM]	GI50 (U251 CNS) [µM]	GI50 (NCI/ADR-RES ovarian) [µM]	GI50 (SR leukemia) [µM]	GI50 (HCT-116 colon) [µM]	GI50 (M14 melanoma) [µM]	GI50 (HS 578T breast) [µM]	GI50 (MDA-MB-435) [µM]	GI50 (MDA-MB-231 breast) [µM]	GI50 (UACC-62 melanoma) [µM]
O=S(=O)(c1ccccc1)N1CCN(S(=O)(=O)c2ccccc2)c2ccccc21	> 100	> 100	> 100	> 100	> 100	> 100	> 100	> 100	> 100	> 100	–	–	–	–	–	–	–	–	–	–
COc1cc(-c2ccc3cc(OC)c(OC)c(OC)c3c2)cc(OC)c1OC	> 100	> 100	> 100	> 100	> 100	> 100	> 100	> 100	> 100	> 100	> 100	15.7	7.91	5.19	11.9	9.52	15.4	2.8	8.91	29.6
O=C(/C=C/c1ccc(O)cc1)c1ccc(O)cc1	37.9	46.6	> 63.1	51.3	36.3	42.7	> 67.5	> 100	> 100	> 66.8	–	–	–	–	–	–	–	–	–	–
CCOC(=O)C1=C(C)N(c2ccc(F)cc2F)[C@]2(C#N)C(O)=C(Cl)C(Cl)=C(O)[C@]12C#N	> 100	> 100	> 100	95.9	> 100	> 100	> 100	> 100	> 100	–	> 100	> 100	5.61	34.5	> 100	> 100	> 100	> 100	> 100	–
Cc1csc(-c2nnc(Nc3ccc(Oc4ncccc4-c4ccnc(N)n4)cc3)c3ccccc23)c1	> 100	> 100	> 100	> 100	> 100	> 100	> 100	> 100	> 100	> 100	–	> 100	0.355	< 0.01	1.89	1.51	> 100	2.45	4.32	0.767
COc1cc(C2CC(C)(O)Oc3cc4c(cc32)OCO4)cc(OC)c1OC (stereo not given)	> 100	20.1	–	> 100	> 100	> 100	0.696	–	0.851	> 100	–	–	–	–	–	–	–	–	–	–
CCCCCCCCCCn1cc[n+](C)c1	23.5	19.1	> 100	4.16	> 36.9	13.5	14	8.64	16.9	10.6	1.79	1.86	47.4	0.163	1.37	1.9	2.36	1.4	2.73	2.53
O=C(Oc1ccc(Cl)cc1)c1ccccc1Nc1ccnc(C(F)(F)F)c1	4.67	–	49.5	> 100	–	4.53	93.9	4.87	7.04	8.44	2.32	–	16.2	3.79	–	2.12	30.3	2.15	1.78	2.61
COc1ccc(-c2cn[nH]c2-c2cc(OC)c(OC)c(OC)c2)cc1	18.2	1.7	40.2	13.9	11.4	–	22.5	–	33.1	19.5	0.0187	0.0358	0.0305	0.0177	0.0342	–	0.0408	–	0.055	0.0339
COc1cc(/C(C#N)=C/c2nc3c(N4CCOCC4)nc(Cl)nc3n2C)cc(OC)c1OC	2.87	> 32.2	5.56	–	0.464	–	> 23.7	–	35.9	15.5	< 0.01	< 0.01	< 0.01	< 0.01	< 0.01	–	< 0.01	–	< 0.01	< 0.01
Nc1cc(NN=C(c2ccc(O)cc2)c2ccc(O)cc2)c([N+](=O)[O-])cc1[N+](=O)[O-]	5.24	4.15	11.6	7.48	4.23	3.49	–	3.44	5.38	3.01	1.88	1.93	3.49	2.03	2	1.71	–	1.7	2.22	1.66

— PubChem BioAssay (NCI)
